In PMC12254266, “Multicolored sequential resonance energy transfer for detection of simultaneous ligand binding at G protein-coupled receptors” (Nature Communications, 2025):
Values joined by “and” are separate entries in the source; they are usually repeats but may differ in a detail not shown here. Equal values may be shown once.

Molecular target: FFA1 (Homo sapiens, UniProt O14842)
Test: Ca2+ mobilisation (Fura2) in Flp-In T-REx 293 cells expressing Nluc-FFA1, FFA1-Nluc or untagged FFA1
Format: cell-based
Set-up: expressed in transfected cells
Conditions: for Ca2+ Response as a % of T360 Response: single technical replicates; for pEC50: Ca2+ data, mean±SEM; for pEC50 / EMax: NR = No response; for EMax: percentage of response to 10 μM T360
Procedure: Nluc-FFA1, FFA1-Nluc or untagged FFA1 Flp-In T-REx 293 cells were plated at 50,000 cells per well in poly-D-lysine coated black clear bottom 96-well plates. Cells were then cultured for 24 h until reaching confluency before culture medium was replaced with medium containing 100 ng/mL of doxycycline to induce receptor expression. Cells were cultured for a further 24 h before the assay. On the day of the assay culture medium was removed and replaced with medium containing 3 μM Fura2-AM Ca^2+ dye. […] Fura2 fluorescent emission at 520 nm following excitation with each of 340 and 380 nm was measured in regular intervals both before and after adding test compounds for a total of 90 s per well. Calcium responses were determined by taking the peak 340/380 ratio after first subtracting the ratios obtained prior to addition of test compound.

Chain of FFA1 (O14842 whole entry): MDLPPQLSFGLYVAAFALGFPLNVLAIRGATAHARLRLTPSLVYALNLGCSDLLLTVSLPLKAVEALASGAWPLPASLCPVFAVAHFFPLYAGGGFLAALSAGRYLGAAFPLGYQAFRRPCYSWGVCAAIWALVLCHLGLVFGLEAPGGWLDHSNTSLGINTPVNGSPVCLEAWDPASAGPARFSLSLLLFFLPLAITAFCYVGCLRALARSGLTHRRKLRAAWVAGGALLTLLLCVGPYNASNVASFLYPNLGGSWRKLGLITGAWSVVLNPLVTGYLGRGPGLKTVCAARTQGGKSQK

Row | activity in Ca2+ assays (in words) | pEC50 | EMax | SMILES | Ca2+ Response as a % of T360 Response (log[Ligand] -5) | Ca2+ Response as a % of T360 Response (log[Ligand] -5.5) | Ca2+ Response as a % of T360 Response (log[Ligand] -6) | Ca2+ Response as a % of T360 Response (log[Ligand] -6.5) | Ca2+ Response as a % of T360 Response (log[Ligand] -7) | Ca2+ Response as a % of T360 Response (log[Ligand] -8) | Ca2+ Response as a % of T360 Response (log[Ligand] -9)
1 | loss of activity |  |  | COc1ccc(C(=O)N(CC(C)(C)C)c2cccc(C)n2)c(N2CCC(COc3cccc(C(CC(=O)NCCCNc4ccc([N+](=O)[O-])c5nonc45)C4CC4)c3)CC2)c1.O=C(O)C(F)(F)F (stereo not drawn) [TUG-2598] | 7.1012% and 15.2717% and 1.6246% and 2.7551% and 3.0159% and 6.2735% and 0.8241% and 1.6284% and -0.5359% | 1.5741% and 1.0900% and 0.3918% and 0.5253% and 0.2798% and 0.0720% and 0.3603% and 1.4514% and 1.2937% | 0.7619% and 0.7231% and 2.0549% and 2.7546% and 3.4553% and 0.9789% and -0.3872% and -0.5141% and 0.0396% | 0.0902% and 2.5170% and 0.7188% and 6.6987% and 2.2005% and 0.1478% and -0.6706% and 0.0668% and 0.2619% | 0.1653% and 1.3781% and 1.4889% and 2.9024% and 3.7196% and 2.7339% and -0.5451% and -0.2430% and 0.9384% | 0.4880% and 2.3639% and 0.4031% and 3.7453% and 1.7322% and 2.3495% and 0.5137% and 0.8889% and 1.3866% | 4.5581% and 0.9272% and 0.1871% and 0.2081% and 3.1188% and 3.6549% and 0.3770% and -0.1948% and -0.1822%
2 |  | 5.29±0.04 |  | COc1ccc(C(=O)NCC(C)(C)CNc2ccc([N+](=O)[O-])c3nonc23)c(N2CCC(COc3cccc(C(CC(=O)O)C4CC4)c3)CC2)c1.O=C(O)C(F)(F)F (stereo not drawn) [TUG-2489] | 102.5277% and 96.3666% and 102.3411% and 80.8186% and 76.8959% | 75.8584% and 55.2490% and 64.4948% and 77.9746% and 61.7732% and 62.6510% | 11.4043% and 15.1652% and 19.0434% and 4.1691% and 0.1177% and 9.7037% | 0.7033% and -0.7918% and -3.1732% and -6.5594% and 0.0827% and 3.4744% | -3.1258% and 4.2395% and 1.6831% and -3.2821% and -0.2376% and 1.2224% | -0.4995% and 5.1700% and -1.2657% and 6.6097% and 0.3774% and -0.3774% | 0.4589% and 3.5934% and -2.5884% and -5.3677% and 0.8677% and 2.5453%

More lines, now with the values behind:

Row | SMILES | activity in Ca2+ assays (in words) | pEC50 | EMax | Ca2+ Response as a % of T360 Response (log[Ligand] -5) | Ca2+ Response as a % of T360 Response (log[Ligand] -5.5) | Ca2+ Response as a % of T360 Response (log[Ligand] -6) | Ca2+ Response as a % of T360 Response (log[Ligand] -6.5) | Ca2+ Response as a % of T360 Response (log[Ligand] -7) | Ca2+ Response as a % of T360 Response (log[Ligand] -8) | Ca2+ Response as a % of T360 Response (log[Ligand] -9)
3 | COc1ccc(C(=O)N2CCC(CNC(=O)OC(C)(C)C)CC2)c(N2CCC(COc3cccc(C(CC(=O)O)C4CC4)c3)CC2)c1.O=C(O)C(F)(F)F (stereo not drawn) [TUG-2450] |  | 6.18±0.09 | 108±7% |  |  |  |  |  |  | 
4 | COc1ccc(C(=O)N2CCN(CCNC(=O)OC(C)(C)C)CC2)c(N2CCC(COc3cccc(C(CC(=O)O)C4CC4)c3)CC2)c1.Cl (stereo not drawn) [TUG-2458] |  | 5.38±0.09 | 133±5% |  |  |  |  |  |  | 
5 | COc1ccc(C(=O)N2CCC(CCNC(=O)OC(C)(C)C)CC2)c(N2CCC(COc3cccc(C(CC(=O)O)C4CC4)c3)CC2)c1.O=C(O)C(F)(F)F (stereo not drawn) [TUG-2451] |  | 6.20±0.14 | 112±10% |  |  |  |  |  |  | 
6 | COc1ccc(C(=O)NCC(C)(C)CNC(=O)OC(C)(C)C)c(N2CCC(COc3cccc(C(CC(=O)O)C4CC4)c3)CC2)c1.Cl (stereo not drawn) [TUG-2457] |  | 6.62±0.15 | 108±3% |  |  |  |  |  |  | 
